In ChEMBL document CHEMBL5331071, “Structure-activity relationship study of amidobenzimidazole derivatives as stimulator of interferon genes (STING) agonists” (Eur J Med Chem, 2023):
Calls of active or inactive are those of the source. The calls are words filed in the database; no cut-off is given here.

What was measured:
[1] = target: T1, Stimulator of interferon genes protein (Homo sapiens, UniProt Q86WV6); test: Activation of STING signaling pathway in human wild type THP-1 cells assessed as increase in CXCL10 mRNA level at 50 uM measured after 4 hrs by qRT-PCR analysis; format: cell-based; settings: filed as agonist
T1 sequence (Q86WV6 whole entry): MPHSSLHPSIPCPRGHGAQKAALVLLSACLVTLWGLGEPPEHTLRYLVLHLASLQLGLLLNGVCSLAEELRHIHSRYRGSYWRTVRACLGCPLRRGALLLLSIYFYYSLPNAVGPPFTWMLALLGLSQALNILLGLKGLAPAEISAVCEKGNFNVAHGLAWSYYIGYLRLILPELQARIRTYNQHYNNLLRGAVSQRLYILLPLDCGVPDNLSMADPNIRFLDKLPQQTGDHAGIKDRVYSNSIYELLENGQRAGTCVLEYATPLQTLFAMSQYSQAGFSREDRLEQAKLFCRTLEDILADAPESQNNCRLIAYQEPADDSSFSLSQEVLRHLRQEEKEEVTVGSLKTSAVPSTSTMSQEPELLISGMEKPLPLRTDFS

[2] = target: T2, Stimulator of interferon genes protein (Mus musculus) (UniProt Q3TBT3); test: Activation of STING in mouse RAW264.7 cells assessed as increase in IFN-beta expression at 10 to 100 uM incubated for 24 hrs by qRT-PCR analysis; format: cell-based; settings: dose 10-100 µM
T2 sequence (whole entry): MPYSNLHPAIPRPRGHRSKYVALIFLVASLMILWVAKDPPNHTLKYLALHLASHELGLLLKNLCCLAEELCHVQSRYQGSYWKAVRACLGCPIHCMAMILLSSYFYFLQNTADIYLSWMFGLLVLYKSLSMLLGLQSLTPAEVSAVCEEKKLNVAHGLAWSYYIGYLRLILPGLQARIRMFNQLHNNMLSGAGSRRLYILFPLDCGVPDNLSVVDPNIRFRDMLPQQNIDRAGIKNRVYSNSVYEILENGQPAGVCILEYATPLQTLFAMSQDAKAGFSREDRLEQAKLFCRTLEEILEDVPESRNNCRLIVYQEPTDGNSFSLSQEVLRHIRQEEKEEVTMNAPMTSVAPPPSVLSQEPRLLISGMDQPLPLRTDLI

[3] = target: T1, Stimulator of interferon genes protein; test: Activation of STING signalling pathway in human PBMC cells assessed as increase in IL-6 level incubated for 4 hrs by ELISA method; format: cell-based
[4] = target: T1, Stimulator of interferon genes protein; test: Activation of STING signalling pathway in human wild type THP-1 cells assessed as increase in IRF3 phosphorylation at 10 uM measured after 1 hr by Western blot analysis; format: cell-based; settings: filed as agonist
[5] = target: T1, Stimulator of interferon genes protein; test: Activation of STING signalling pathway in human THP1-Dual cells assessed as increase in NF-kappaB-SEAP activation incubated for 24 hrs by QUANTI-Blue reagent based assay; format: cell-based
[6] = target: T2, Stimulator of interferon genes protein (Mus musculus); test: Activation of STING in mouse RAW264.7 cells assessed as increase in IL-6 expression at 10 to 100 uM incubated for 24 hrs by qRT-PCR analysis; format: cell-based; settings: dose 10-100 µM
[7] = target: T1, Stimulator of interferon genes protein; test: Activation of STING signalling pathway in human THP1-Dual cells assessed as increase in IRF-luciferase activation incubated for 24 hrs by QUANTI-luc assay; format: cell-based
[8] = target: T1, Stimulator of interferon genes protein; test: Activation of STING signalling pathway in human THP-1 cells assessed as increase in TNF-alpha level incubated for 4 hrs by ELISA method; format: cell-based; settings: filed as agonist, dose 3.7-33.3 pg/ml
[9] = target: T2, Stimulator of interferon genes protein (Mus musculus); test: Activation of STING in mouse RAW264.7 cells assessed as increase in IRF3 phosphorylation at 10 to 100 uM incubated for 4 hrs by Western blot analysis; format: cell-based; settings: dose 10-100 µM
[10] = target: T1, Stimulator of interferon genes protein; test: Activation of STING signaling pathway in human PBMC cells assessed as increase in CXCL10 mRNA level at 0.1 to 1 uM measured after 4 hrs by qRT-PCR analysis; format: cell-based; settings: filed as agonist, dose 0.1-1 µM
[11] = target: T3, Stimulator of interferon genes protein (Mus musculus, UniProt Q3TBT3); test: Agonist activity at STING in mouse RAW-Lucia ISG cells by luciferase gene reporter assay; format: cell-based
T3 sequence (Q3TBT3 whole entry): T2 sequence (whole entry)

[12] = target: T1, Stimulator of interferon genes protein; test: Activation of STING signalling pathway in human PBMC cells assessed as increase in TBK1 phosphorylation at 10 uM measured after 1 hr by Western blot analysis; format: cell-based; settings: filed as agonist
[13] = target: T1, Stimulator of interferon genes protein; test: Activation of STING signalling pathway in human PBMC cells assessed as increase in IFN-beta level incubated for 4 hrs by ELISA method; format: cell-based
[14] = target: T1, Stimulator of interferon genes protein; test: Activation of STING signaling pathway in human PBMC cells assessed as increase in IFN-beta mRNA level at 0.1 to 1 uM measured after 4 hrs by qRT-PCR analysis; format: cell-based; settings: filed as agonist, dose 0.1-1 µM
[15] = target: T1, Stimulator of interferon genes protein; test: Agonist activity at STING in human THP1-Dual cells incubated for 20 hrs by Quanti-luc reagent based assay; format: cell-based
[16] = Metabolic stability in Sprague-Dawley rat plasma assessed as compound remaining measured after 1 hr by LC-MS/MS analysis; format: ADME, cell-free; settings: read-out: Stability
[17] = target: T1, Stimulator of interferon genes protein; test: Agonist activity at STING in human […] KO-STING cells incubated for 20 hrs by Quanti-luc reagent based assay; format: cell-based, THP1-Dual KO-STING
[18] = target: T1, Stimulator of interferon genes protein; test: Activation of STING signaling pathway in human wild type THP-1 cells assessed as increase in IL-6 mRNA level at 50 uM measured after 4 hrs by qRT-PCR analysis; format: cell-based; settings: filed as agonist
[19] = target: T2, Stimulator of interferon genes protein (Mus musculus); test: Activation of STING in mouse RAW264.7 cells assessed as increase in TBK1 phosphorylation at 10 to 100 uM incubated for 4 hrs by Western blot analysis; format: cell-based; settings: dose 10-100 µM
[20] = target: T1, Stimulator of interferon genes protein; test: Activation of STING signaling pathway in human PBMC cells assessed as increase in IL-6 mRNA level at 0.1 to 1 uM measured after 4 hrs by qRT-PCR analysis; format: cell-based; settings: filed as agonist, dose 0.1-1 µM
[21] = target: T1, Stimulator of interferon genes protein; test: Activation of STING signalling pathway in human PBMC cells assessed as increase in STING phosphorylation at 55.68 uM measured after 1 hr by Western blot analysis; format: cell-based
[22] = target: T1, Stimulator of interferon genes protein; test: Activation of STING signalling pathway in human PBMC cells assessed as increase in CXCL10 level incubated for 4 hrs by ELISA method; format: cell-based
[23] = target: T1, Stimulator of interferon genes protein; test: Activation of STING signalling pathway in human THP-1 cells assessed as increase in CXCL10 level incubated for 4 hrs by ELISA method; format: cell-based; settings: filed as agonist, dose 0.046-0.421 pg/ml
[24] = target: T1, Stimulator of interferon genes protein; test: Activation of STING signaling pathway in human wild type THP-1 cells assessed as increase in IFN-beta mRNA level at 50 uM measured after 4 hrs by qRT-PCR analysis; format: cell-based; settings: filed as agonist
[25] = target: T1, Stimulator of interferon genes protein; test: Activation of STING signalling pathway in human PBMC cells assessed as increase in STING phosphorylation at 10 uM measured after 1 hr by Western blot analysis; format: cell-based; settings: filed as agonist
[26] = target: T1, Stimulator of interferon genes protein; test: Activation of STING signalling pathway in human THP-1 cells assessed as increase in IL-6 level incubated for 4 hrs by ELISA method; format: cell-based; settings: filed as agonist, dose 3.7-33.3 pg/ml
[27] = target: T1, Stimulator of interferon genes protein; test: Activation of STING signalling pathway in human PBMC cells assessed as increase in IRF3 phosphorylation at 10 uM measured after 1 hr by Western blot analysis; format: cell-based; settings: filed as agonist
[28] = target: T2, Stimulator of interferon genes protein (Mus musculus); test: Activation of STING in mouse RAW264.7 cells assessed as increase in CXCL10 expression at 10 to 100 uM incubated for 24 hrs by qRT-PCR analysis; format: cell-based; settings: dose 10-100 µM
[29] = target: T1, Stimulator of interferon genes protein; test: Activation of STING signalling pathway in human wild type THP-1 cells assessed as increase in STING phosphorylation at 10 uM measured after 1 hr by Western blot analysis; format: cell-based; settings: filed as agonist
[30] = Cytotoxicity against human THP1-Dual KO-STING cells assessed as inhibition of cell growth by MTS assay; format: functional, cell-based
[31] = Metabolic stability in Sprague-Dawley rat plasma assessed as compound remaining measured after 2 hrs by LC-MS/MS analysis; format: ADME, cell-free; settings: read-out: Stability
[32] = target: T1, Stimulator of interferon genes protein; test: Activation of STING signalling pathway in human wild type THP-1 cells assessed as increase in IFN-beta secretion incubated for 4 hrs by ELISA method; format: cell-based
[33] = test system: THP1-Dual; test: Cytotoxicity against human THP1-Dual habouring STING assessed as inhibition of cell growth by MTS assay; format: functional, cell-based
[34] = target: T1, Stimulator of interferon genes protein; test: Activation of STING signalling pathway in human wild type THP-1 cells assessed as increase in TBK1 phosphorylation at 10 uM measured after 1 hr by Western blot analysis; format: cell-based; settings: filed as agonist

Activity [1]: Active
Activity [2]: inactive
EC50 [3]: 0.03 µM
Activity ([3]; filed as agonist, dose 0.006-0.16 µM): Dose-Dependent Effect
Activity [4]: Active
EC50 [5]: 5.5 µM
Activity ([5]; filed as agonist): Dose-Dependent Effect
Activity [6]: inactive
EC50 [7]: 3.2 µM
Activity ([7]; filed as agonist): Dose-Dependent Effect
Activity [8]: Dose-Dependent Effect
Activity [9]: inactive
Activity [10]: Active
EC50 [11]: > 100 µM
Activity [12]: Active
EC50 [13]: 0.27 µM
Activity ([13]; filed as agonist, dose 0.137-1.235 µM): Dose-Dependent Effect
Activity [14]: Active
EC50 [15]: 1.58 µM
remaining at 1 h [16]: 78.7%
EC50 [17]: > 100 µM
Activity [18]: Active
Activity [19]: inactive
Activity [20]: Active
Activity [21]: inactive
EC50 [22]: 0.12 µM
Activity ([22]; filed as agonist, dose 0.046-0.412 µM): Dose-Dependent Effect
Activity [23]: Dose-Dependent Effect
Activity [24]: Active
Activity [25]: Active
Activity [26]: Dose-Dependent Effect
Activity [27]: Active
Activity [28]: inactive
Activity [29]: Active
remaining at 2 h [31]: 60.5%
EC50 [32]: 4.74 µM
Activity ([32]; filed as agonist): Dose-Dependent Effect
Activity [34]: Active
SMILES: CCn1nc(C)cc1C(=O)Nc1nc2cc(C(N)=O)cc(OC)c2n1NCCCC(=O)NCc1ccc(F)cc1
IC50 [30]: > 100 µM
IC50 [33]: > 100 µM
